{"source": "patent US4419352A", "about": "“Pyranoquinolinones and analogs thereof” (Fisons Limited, priority 1978, dated 1983)", "key": {"[1]": {"tested_on": "human volunteer suffering from specific allergic asthma", "experiment": "antigen inhalation provocation test (F E V1.0, percent protection)", "format": "in vivo", "conditions": "F E V1.0, after drug administration", "method": "Clinical evaluation of the compounds was carried out using the antigen inhalation provocation test described below:\nThe human volunteer selected for test purposes suffered from specific allergic asthma. In this subject an asthma attack normally followed the inhalation of an antigen to which they were specifically sensitive. The degree of asthma provoked by this method can be measured by repeated examination of the air way resistance.\nThe antiallergic activity of a compound is estimated from the difference between the maximum percent F E V1.0 reduction following control and test provocations after drug administration conducted under identical experimental conditions.\nThe results of the tests are expressed as percent protection according to the formula: [formula]"}, "[2]": {"tested_on": "anaesthatised cats", "experiment": "blood pressure, heart rate and cardiac output of anaesthetised cats", "format": "in vivo, cat"}, "[3]": {"tested_on": "cardiovascular response to isoprenaline", "experiment": "cardiovascular response to isoprenaline in the cat", "format": "in vivo"}, "[4]": {"tested_on": "cardiovascular response to isoprenaline", "experiment": "cardiovascular response to isoprenaline in the rat", "format": "in vivo"}, "[5]": {"tested_on": "rats", "experiment": "food choice (revulsion) test in rats", "format": "in vivo, rat"}, "[6]": {"experiment": "sub-cutaneous LD50 in mice", "conditions": "mouse, in vivo, sc"}, "[7]": {"experiment": "sub-cutaneous LD50 in rats", "conditions": "rat, in vivo, sc"}}}
{"smiles": "CCCc1c2nc(C(=O)[O-])cc(Cl)c2cc2c(=O)cc(C(=O)[O-])oc12.[Na+].[Na+]", "values": [{"measurement": "protection against asthma provoked by antigen inhalation", "setting": "[1]", "result": "very considerable protection"}, {"measurement": "effect on blood pressure", "setting": "[2]", "result": "without effect"}, {"measurement": "effect on cardiac output", "setting": "[2]", "result": "without effect"}, {"measurement": "effect on heart rate", "setting": "[2]", "result": "without effect"}, {"measurement": "alteration of cardiovascular response to isoprenaline", "setting": "[3]", "result": "did not alter"}, {"measurement": "alteration of cardiovascular response to isoprenaline", "setting": "[4]", "result": "did not alter"}, {"measurement": "revulsion when rats choose between food source containing it and one which does not", "setting": "[5]", "result": "does not produce revulsion"}, {"measurement": "LD50", "setting": "[6]", "result": "> 2000", "unit": "mg/kg"}, {"measurement": "LD50", "setting": "[7]", "result": "> 2000", "unit": "mg/kg"}]}
